Experimental findings from patent publication US20250170100A1, “MONOACYLGLYCEROL LIPASE INHIBITORS AND USE THEREOF FOR THE TREATMENT OF ANXIETY AND RELATED CONDITIONS” (Psy Therapeutics, Inc., priority 2021, published 2025) are described below.

Holding throughout (format): biochemical
In assay [1] the target is T1, human MAGL (Homo sapiens (Human), UniProt Q99685). Put plainly: MAGL inhibition potency assay with 4NPA substrate (methods of Table C). From the text:
Cayman's Monoacylglycerol Lipase Inhibitor Screening Assay provides a method for screening human MAGL inhibitors. MAGL hydrolyzes 4-nitrophenylacetate resulting in a yellow product, 4-nitrophenol, with an absorbance of 405-412 nm. The monoacylglycerol lipase inhibitor screening assay kit from Cayman Chemical was used to measure the MAGL potency for the compounds in Table 3 and Table 4. Cayman's Monoacylglycerol Lipase Inhibitor Screening Assay provides a method for screening human MAGL inhibitors. MAGL hydrolyzes 4-nitrophenylacetate resulting in a yellow product, 4-nitrophenol, with an absorbance of 405-412 nm. MAGL Inhibition was measured by the following assay. Monoacylglycerol Lipase (MAGL) inhibition was measured using recombinant MAGL enzyme (aa 2-303 RBC, internal preparation) and the substrate 4-Nitrophenyl acetate (4NPA) (Sigma-Aldrich, N8130). Hydrolysis of the substrate in the presence of the enzyme was measured by absorbance at 405 nm. 10 μL of assay buffer (10 mM Tris pH 7.5, 1 mM EDTA, 0.9% DMSO) was added to a black 384-well non-binding plate with clear bottom (Greiner, 781906) for each reaction. […] DMSO control wells were included for reference. A 10.8 nM (1.8×) MAGL mix in assay buffer was prepared, with […] added to each reaction well, for a final assay concentration of 6 nM. No enzyme wells received 25 μL of buffer. Plate was incubated at room temperature for 30 minutes. 35 mM solution of 4NPA in methanol was prepared daily. A 4.5×4NPA substrate solution was prepared in assay buffer and 10 μL was added to each reaction well, for a final assay concentration of 0.25 mM. Plate was spun for 1 minute at 1000 rpm before measuring absorbance using a CLARIOstar plate reader (BMG Labtech). A kinetic reading at 405 nm was done every minute for 30 minutes. Data was analyzed using the linear slope of the reaction progress curve and the average of the no-enzyme wells (background) was subtracted from the data. The background-subtracted slope data was converted to % activity using the average of wells with enzyme and DMSO vehicle. IC50s were calculated using GraphPad software (Sigmoidal dose response, variable slope equation). […] Table 5 provides potency measurements of MAGL inhibition measured using the Potency Assay of Example 18 above, with the following modifications described in Table C. [table]
Target sequence in this assay (Q99685 2-303): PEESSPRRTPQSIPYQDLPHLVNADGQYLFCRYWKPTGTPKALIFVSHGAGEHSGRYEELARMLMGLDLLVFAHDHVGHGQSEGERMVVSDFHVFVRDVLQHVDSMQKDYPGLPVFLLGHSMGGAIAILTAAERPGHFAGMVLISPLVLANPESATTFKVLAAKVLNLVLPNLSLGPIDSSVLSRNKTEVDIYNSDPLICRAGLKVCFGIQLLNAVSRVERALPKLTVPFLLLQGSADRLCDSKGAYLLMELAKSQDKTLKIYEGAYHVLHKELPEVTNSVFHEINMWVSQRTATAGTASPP

Assay [2] deals with human recombinant FAAH (Homo sapiens (Human), UniProt O00519). Put plainly: FAAH counter screen (Fatty Acid Amide Hydrolase Inhibitor Screening Assay Kit). The following applies: Method A: starting concentration of 100 μM. Here is the method:
MAGL inhibitor compounds were also counter-screened for FAAH inhibition potency using the following assay. Assessment of FAAH inhibition was performed using Fatty Acid Amide Hydrolase Inhibitor Screening Assay Kit (Cayman Item No. 10005196) following manufacture's instruction with some modifications. The kit utilizes human recombinant FAAH and the fluorescent substrate, AMC Arachidonoyl amide (AAMCA). 5 μL of assay buffer (125 mM Tris, pH 9.0, 1 mM EDTA, i.e. ethylenediaminetetraacetic acid) was added to a 384-well black plate (Corning, 3573). Test compounds and control inhibitor JZL-195 (Cayman Chemical, 13668) were tested in 10-concentration IC50 mode with 3-fold serial dilution at a starting concentration of 100 μM and 10 μM, respectively. 300 nL or 30 nL of test compounds were delivered into a 384-well black plate (Corning, 3573) using a Labcyte Echo, followed by addition of 15 μL of FAAH enzyme (Cayman, 700302) in assay buffer. After a 5-minute pre-incubation at room temperature, 10 μL of AAMCA was added in assay buffer to start the reaction. Final concentration of FAAH enzyme is not specified and AAMCA substrate was used at the 20 μM. After these dilutions, the final concentration of the test compounds ranged from 100 μM to 5.08 nM or 10 μM down to 0.508 nM. The reaction was allowed to progress for 60 minutes, while the plate was read on an Envision plate reader at an Ex/Em of 350/460 nm with readings every minute. The data was analyzed in Microsoft Excel, using the slope between 30 and 59 minutes. The average of the no-enzyme wells (background) was subtracted from the data. The background-subtracted slope data was converted to % activity using the average of wells with enzyme and DMSO vehicle. IC50 values were calculated using GraphPad software (Sigmoidal dose response, variable slope equation).
Compounds listed in Table D2 were tested in the FAAH Counterscreen of Example 19
(A counterscreen serves to expose hits that act by an unwanted route or on another target.)

Assay [3] has as its target T1, human MAGL. Put plainly: MAGL reversible inhibition assay (washout). The following applies: for A: degree to which MAGL enzymatic activity returned following washout: pre-washout compound concentration: 1 μM. Here is the method:
The reversible mechanism of MAGL inhibition of a test compound of Formula (I) can be determined. Flag-tagged MAGL enzyme will be immobilized on anti-Flag beads. Immobilized enzyme will be incubated+/−inhibitor at a dose that produces complete inhibition. Colorimetric substrate (4-NPA) will be added and the reaction monitored on a plate reader for 30 minutes to verify complete inhibition. Immobilized enzyme will then be washed thoroughly to remove the inhibitor, and fresh substrate will be added. The reaction will be monitored for an additional 30 minutes; returning enzymatic activity will indicate reversibility of inhibition.
MAGL enzyme was incubated for 30 minutes in the presence of 40× the IC50 concentration of inhibitor. Enzyme+inhibitor mix was then diluted 40-fold so that the final concentration of the inhibitor equaled the IC50 concentration. Substrate was added and the reaction was monitored for 30 minutes.
Target sequence in this assay (Q99685 whole entry): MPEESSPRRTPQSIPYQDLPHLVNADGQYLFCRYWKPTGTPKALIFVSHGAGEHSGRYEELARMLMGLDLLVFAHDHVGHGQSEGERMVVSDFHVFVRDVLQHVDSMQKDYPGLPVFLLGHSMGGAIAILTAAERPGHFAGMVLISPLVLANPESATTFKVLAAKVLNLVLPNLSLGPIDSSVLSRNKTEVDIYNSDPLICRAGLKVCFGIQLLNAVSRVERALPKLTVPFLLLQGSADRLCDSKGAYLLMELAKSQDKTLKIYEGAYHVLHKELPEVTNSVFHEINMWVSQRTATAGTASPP

The target of assay [4] is T1, human MAGL. Put plainly: MAGL inhibition potency assay with 4NPA substrate (methods of Table C). The conditions noted are these: 10 nM, read-out: MAGL Potency (Detection Method).
Target sequence in this assay (Q99685 2-303): as the sequence (Q99685 2-303) above
Setting [5] is: Method 6: Reaction Biology MAGL enzyme, 6 nM, read-out: Potency (MAGL inhibition).
The mark [6] stands for this setting: Method 14: Reaction Biology MAGL enzyme, 6 nM, read-out: Potency (MAGL inhibition).
Where [7] appears, read: Method 1: Reaction Biology MAGL enzyme, 6 nM, read-out: MAGL Potency (Detection Method).
Where [8] appears, read: Method 2: Cayman Chemical MAGL enzyme.
Setting [9] is: Method 14: Reaction Biology MAGL enzyme, 6 nM, read-out: MAGL Potency (Detection Method).

The structures appear in SMILES notation. Read-outs that look alike come from different tables or passages of the source.

Chain of human recombinant FAAH (O00519 whole entry): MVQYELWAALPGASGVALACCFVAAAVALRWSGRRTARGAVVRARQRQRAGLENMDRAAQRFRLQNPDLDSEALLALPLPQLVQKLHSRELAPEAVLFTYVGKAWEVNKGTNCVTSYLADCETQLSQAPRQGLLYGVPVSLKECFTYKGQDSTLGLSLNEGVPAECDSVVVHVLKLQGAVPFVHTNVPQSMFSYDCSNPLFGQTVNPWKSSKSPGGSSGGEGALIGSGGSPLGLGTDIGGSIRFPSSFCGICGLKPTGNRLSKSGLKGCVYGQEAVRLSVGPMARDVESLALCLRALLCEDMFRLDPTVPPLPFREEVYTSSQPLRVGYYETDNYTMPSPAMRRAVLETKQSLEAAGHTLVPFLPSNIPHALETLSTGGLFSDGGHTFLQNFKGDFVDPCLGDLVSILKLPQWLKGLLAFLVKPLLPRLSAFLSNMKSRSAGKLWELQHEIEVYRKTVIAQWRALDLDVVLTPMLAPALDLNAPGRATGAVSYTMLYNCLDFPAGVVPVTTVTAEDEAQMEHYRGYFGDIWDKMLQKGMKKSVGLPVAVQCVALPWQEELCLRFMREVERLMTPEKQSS

Consider `Cc1cc(-c2ccccc2C)n(C2CC3(C2)CN(C(=O)c2cc(O)ccc2F)C3)n1` [Compound 406], for which, in assay [1] (setting [5]), the IC50 was over 10 µM. As for `Cc1cc(C2CC3(C2)CN(C(=O)c2ccccc2F)C3)n(-c2ccccc2C)n1` [Compound 122, (2-fluorophenyl)(6-(3-methyl-1-(o-tolyl)-1H-pyrazol-5-yl)-2-azaspiro[3.3]heptan-2-yl)methanone], in assay [2], the IC50 was over 10 µM. On to `Cc1cc(C2CC3(C2)CN(C(=O)c2cc4c(cc2F)CCO4)C3)n(-c2ccccc2C)n1` [Compound 368], for which the IC50 in assay [1] (setting [6]) is over 10 µM. Take `O=C(NCC1COC1)C1CC2(C1)CN(C(=O)c1cc(O)ccc1F)C2` [Compound 395]: the IC50 in assay [1] (setting [6]) is over 10 µM. Turning to `Cc1cc(C2CC3(C2)CN(C(=O)c2cccc(O)c2)C3)n(-c2ccccc2C)n1` [Compound 125, (3-hydroxyphenyl)(6-(3-methyl-1-(o-tolyl)-1H-pyrazol-5-yl)-2-azaspiro[3.3]heptan-2-yl)methanone], the IC50 in assay [2] is over 10 µM. As for `O=C(c1cc(O)ccc1F)N1CC2(CC(C(=O)N3CCCC3)C2)C1` [Compound 388], the IC50 in assay [1] (setting [6]) was over 10 µM. Turning to `Cc1cnn(C2CC3(C2)CN(C(=O)c2cc(O)ccc2F)C3)c1-c1cc(F)ccc1Cl` [Compound 519, {6-[5-(2-chloro-5-fluorophenyl)-4-methyl-1-pyrazolyl]-2-aza-2-spiro[3.3]heptyl}(2-fluoro-5-hydroxyphenyl) methanone], the “A: degree to which MAGL enzymatic activity returned following washout” value (“A: degree” for short) in assay [3] was 155.

For `Cc1ccccc1-c1c(C)cnn1C1CC2(C1)CN(C(=O)c1cc(O)ccc1F)C2` [Compound 405], the IC50 in assay [1] (setting [5]) was over 10 µM.

As for `Cc1cc(C2CC3(C2)CN(Cc2cc(O)ccc2F)C3)n(-c2ccccc2C)n1` [Compound 150, 4-fluoro-3-((6-(3-methyl-1-(o-tolyl)-1H-pyrazol-5-yl)-2-azaspiro[3.3]heptan-2-yl)methyl) phenol], the IC50 in assay [1] (read-out: Potency (MAGL inhibition)) is over 10 µM.

As to `Cc1cc(C2CC3(C2)CN(C(=O)c2cc(O)c(F)cc2F)C3)n(-c2ccccc2C)n1` [Compound 126, (2,4-difluoro-5-hydroxyphenyl) (6-(3-methyl-1-(o-tolyl)-1H-pyrazol-5-yl)-2-azaspiro[3.3]heptan-2-yl) methanone], the IC50 in assay [1] (setting [7]), in assay [4] (setting [8]) and in assay [4] (Method 3: Reaction Biology MAGL enzyme) was under 0.05 µM each time. Consider `Cc1ccccc1-n1nccc1C1CC2(C1)CN(C(=O)c1cc(O)ccc1F)C2` [Compound 367, (2-fluoro-5-hydroxyphenyl) (6-(1-(o-tolyl)-1H-pyrazol-5-yl)-2-azaspiro [3.3]heptan-2-yl) methanone], for which the IC50 in assay [1] (setting [9]) lay within 0.05 to 0.15 µM. As to `Cc1ccccc1-c1cc(C)n(C2CC3(C2)CN(C(=O)c2cc(O)ccc2F)C3)n1` [Compound 442], the IC50 in assay [1] (setting [5]) is over 10 µM.

As to `O=C(c1cc(O)ccc1F)N1CC2(CC(C(=O)N3CCC4(COC4)C3)C2)C1` [Compound 391], the IC50 in assay [1] (setting [6]) is over 10 µM. Turning to `O=C(Oc1ccc([N+](=O)[O-])cc1)N1CCC(C(O)(c2ccc3c(c2)OCO3)c2ccc3c(c2)OCO3)CC1` [JZL-184, reference compound], the “A: degree” value in assay [3] was “complete lack of return of MAGL enzymatic activity”. Also, the “B: % MAGL activity returning after washout” value in assay [3] (relative to control, immediately following a 30 minute washout) is on record as under 1%. In the case of `O=C(c1cc(O)ccc1F)N1CC2(CC(C(=O)N3CCOCC3)C2)C1` [Compound 384], the IC50 in assay [1] (setting [6]) is over 10 µM. Turning to `Cc1cc(C2CC3(C2)CN(C(=O)c2cccc4c2CCO4)C3)n(-c2ccccc2C)n1` [Compound 403], the IC50 in assay [1] (setting [6]) was over 10 µM. With `O=C(c1ccc(F)cc1OC1CC1)N1CC2(CC(n3nc(C(F)(F)F)cc3-c3ccccc3C(F)(F)F)C2)C1` [Compound 424, (2-cyclopropoxy-4-fluorophenyl) (6-(3-(trifluoromethyl)-5-(2-(trifluoromethyl)phenyl)-1H-pyrazol-1-yl)-2-azaspiro[3.3]heptan-2-yl) methanone], the IC50 in assay [1] (setting [5]) is over 10 µM.

Consider `Cc1ccccc1-n1nc(C2CC3(C2)CN(C(=O)c2cc(O)ccc2F)C3)cc1C` [Compound 117], for which the IC50 in assay [2] is over 10 µM. On to `O=C(c1cc(O)ccc1F)N1CC2(CC(n3cc(C4CC4)c(-c4ccccc4Cl)n3)C2)C1` [Compound 445], for which the IC50 in assay [1] (setting [5]) is over 10 µM. Regarding `Cc1cnn(C2CC3(C2)CN(C(=O)c2cc(O)ccc2F)C3)c1-c1ccccc1Cl` [Compound 404], the IC50 in assay [1] (setting [5]) is over 10 µM. As to `Cc1cn(C2CC3(C2)CN(C(=O)c2cc(O)ccc2F)C3)nc1-c1ccccc1Cl` [Compound 416], the IC50 in assay [1] (setting [5]) is over 10 µM. Turning to `O=C(c1cc(O)ccc1F)N1CC2(CC(C(=O)N3CCC4(CCCO4)C3)C2)C1` (centres unmarked) [Compound 400], the IC50 in assay [1] (setting [6]) is over 10 µM. Take `Cc1ccccc1-c1ccn(C2CC3(C2)CN(C(=O)c2cc(O)ccc2F)C3)n1` [Compound 441]: the IC50 in assay [1] (setting [5]) is over 10 µM. Consider `Cc1cc(C2CC3(C2)CN(C(=O)c2ccc4c(c2)OCC4)C3)n(-c2ccccc2C)n1` [Compound 402], for which the IC50 in assay [1] (setting [6]) was over 10 µM. For the molecule `Cc1cc(C2CC3(C2)CN(C(=O)c2cc(O)ccc2F)C3)n(-c2cc(F)ccc2C)n1` [Compound 365, (2-fluoro-5-hydroxyphenyl) {6-[1-(5-fluoro-2-tolyl)-3-methyl-5-pyrazolyl]-2-aza-2-spiro[3.3]heptyl}methanone], the IC50 in assay [1] (setting [9]) is under 0.05 µM.

Take `Cc1cc(C2CC3(C2)CN(C(=O)c2cc(O)ccc2C#N)C3)n(-c2ccccc2C)n1` [Compound 128, 4-hydroxy-2-({6-[3-methyl-1-(o-tolyl)-5-pyrazolyl]-2-aza-2-spiro[3.3]heptyl}carbonyl)benzonitrile]: the IC50 in assay [1] (setting [7]) and in assay [4] (setting [8]) was under 0.05 µM in each case.

For `Cc1cn(C2CC3(C2)CN(C(=O)c2cc(O)ccc2F)C3)nc1-c1cc(F)ccc1Cl` [Compound 520, {6-[3-(2-chloro-5-fluorophenyl)-4-methyl-1-pyrazolyl]-2-aza-2-spiro[3.3]heptyl}(2-fluoro-5-hydroxyphenyl) methanone], the “A: degree” value in assay [3] is given as 100. As for `Cc1cc(C2CC3(C2)CN(C(=O)c2cc(O)ccc2F)C3)n(-c2ccccc2C(F)(F)F)n1` [Compound 366, (2-fluoro-5-hydroxyphenyl) (6-{3-methyl-1-[o-(trifluoromethyl)phenyl]-5-pyrazolyl}-2-aza-2-spiro[3.3]heptyl) methanone], in assay [1] (setting [9]), the IC50 is under 0.05 µM.
